Laboratory results published in US5759787A, “Kinase assay” (Tularik Inc., priority 1996, dated 1998).
Where no end group is shown, it is not given here.

Tested on: PKA
Assay: Radioactive PKA kinase reaction with phosphocellulose or streptavidin capture
Format: biochemical
Settings: substrate peptide
Experimental: The peptide substrates were added in 90 μl assay buffer containing 20 mM Tris-HCl pH 7.5, 2.5 mM MgCl2, and 100 μM ATP for non-radioactive detection, or 10 μM cold ATP supplemented with 0.5 μCi/well [γ-^32 P]ATP for radioactive detection, unless indicated otherwise. Freshly reconstituted PKA (1.25 ng/well in 10 μl, unless indicated otherwise) was added last and the samples were incubated for 30 minutes at room temperature. Depending on the detection method the samples were further processed as described below.
After performing a PKA kinase reaction for 30 minutes, the samples were divided into two. 50 μl were transferred into wells of streptavidin coated microtiter plates, to allow the capture of the biotinylated peptides for additional 50 minutes. The wells were washed five times with water, dried, broken into scintillation vials and counted. The other half of the reaction mixture was further incubated in the original plate for 50 minutes, then TCA was added to the reaction mixture (10% final concentration) and 30 μl was spotted onto P81 paper (1×1 inch squares). After 20 minutes the squares were washed three times with water, dried, placed into scintillation vials and counted. A microtiter plate version of the phosphocellulose capture method was also used with similar results. For src only the phosphocellulose capture method was used.

bio-RRRVTSAARRS (not fully specified (N-terminus); printed as bio-RRRVTSAARRS) [peptide 2]
Km: > 20 µM
